The values below come from article PMC7993727, “Discovery of a novel AR/HDAC6 dual inhibitor for prostate cancer treatment” (Aging (Albany NY), 2021).

The test system of data set [1] is TMPRSS2. Kind of data set: TMPRSS2 mRNA (qRT-PCR) and protein (Western blot) expression in VCaP cells. Format: cell-based. As to conditions: 10 nM DHT, 24 hours. Here is the method: (§1) RNA expression level was analyzed by qRT-PCR and protein expression level was analyzed by Western blot. […] (I) Representative immunofluorescence microscopic images of VCaP cells for checking the subcellular localization of AR.
(§2) The RNA of VCaP cells was extracted using a Simply P Total RNA Extraction kit (Bioer technology) and cDNA was synthesized using a SMARTer PCR cDNA Synthesis Kit (Clontech). PSA and β-actin primers were synthesized by Sangon Biotech according to previous literature. Real-time PCR was performed using the PowerUp SYBR™ Green kit (ThermoFisher). The PCR program was run on a LightCycler 480II (Roche) and set as follows: 2 minutes at 95° C followed by 40 cycles of 30 seconds at 95° C, 15 seconds at 60° C and 30 seconds at 72° C. Data were quantified using the 2-ΔΔCt method based on the Ct values of PSA and β-actin from two parallel experiments performed in triplicate.
(§3) The whole-cell extracts were prepared in lysis buffer with a protease inhibitor cocktail (Bimake), while the xenograft tissue extracts were prepared in 0.5% Nonidet P 40 Substitute solution (Biosharp) with cocktail protease inhibitor (Bimake). Each sample containing 30 μg of total protein was loaded onto 10% SDS-PAGE and electrotransferred onto polyvinylidene fluoride membranes. […]
For orientation: Real-time PCR tracks product formation cycle by cycle.

The target of data set [2] is T1, HDAC6 (Homo sapiens, UniProt Q9UBN7).
T1 sequence (Q9UBN7 1-1215): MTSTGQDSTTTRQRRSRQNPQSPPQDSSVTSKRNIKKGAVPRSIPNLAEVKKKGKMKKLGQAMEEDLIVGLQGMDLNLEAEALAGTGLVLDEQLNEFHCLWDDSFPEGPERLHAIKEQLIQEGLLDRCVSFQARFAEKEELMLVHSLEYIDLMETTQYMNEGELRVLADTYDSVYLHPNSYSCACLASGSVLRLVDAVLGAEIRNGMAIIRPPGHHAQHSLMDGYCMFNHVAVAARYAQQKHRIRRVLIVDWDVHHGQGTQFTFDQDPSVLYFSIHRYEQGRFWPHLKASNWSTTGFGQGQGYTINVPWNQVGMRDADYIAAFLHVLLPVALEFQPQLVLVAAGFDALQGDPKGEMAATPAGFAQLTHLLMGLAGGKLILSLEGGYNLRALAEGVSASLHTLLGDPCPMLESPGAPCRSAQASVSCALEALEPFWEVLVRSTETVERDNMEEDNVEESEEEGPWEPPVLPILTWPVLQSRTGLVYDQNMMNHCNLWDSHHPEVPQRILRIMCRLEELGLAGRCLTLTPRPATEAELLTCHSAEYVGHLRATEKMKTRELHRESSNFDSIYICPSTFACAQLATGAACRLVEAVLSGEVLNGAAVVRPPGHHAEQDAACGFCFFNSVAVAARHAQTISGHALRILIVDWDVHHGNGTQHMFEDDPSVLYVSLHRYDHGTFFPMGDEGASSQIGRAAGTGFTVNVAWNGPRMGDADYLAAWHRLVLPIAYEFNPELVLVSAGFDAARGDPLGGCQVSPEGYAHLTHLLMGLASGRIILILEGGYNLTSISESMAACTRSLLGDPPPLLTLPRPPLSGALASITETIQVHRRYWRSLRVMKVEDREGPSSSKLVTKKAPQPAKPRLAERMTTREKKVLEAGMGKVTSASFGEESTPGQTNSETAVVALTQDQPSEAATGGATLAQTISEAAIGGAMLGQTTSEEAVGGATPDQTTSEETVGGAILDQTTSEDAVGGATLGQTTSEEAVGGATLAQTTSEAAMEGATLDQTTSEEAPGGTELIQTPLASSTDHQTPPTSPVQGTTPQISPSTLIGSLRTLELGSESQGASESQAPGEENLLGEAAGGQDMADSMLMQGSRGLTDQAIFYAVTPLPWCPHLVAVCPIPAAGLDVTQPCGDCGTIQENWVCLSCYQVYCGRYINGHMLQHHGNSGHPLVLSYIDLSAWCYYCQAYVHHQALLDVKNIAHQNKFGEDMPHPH
Kind of data set: acetylation of α-tubulin (HDAC6 substrate) in VCaP cells, Western blot. Format: cell-based. As to conditions: 24 hours. Here is the method:
as §1
To evaluate the HDAC6 inhibition ability of Zeta55 in VCaP cells, the acetylation status of α-tubulin protein (a HDAC6 substrate) was assessed using western blot. […] We assessed the protein level of AR in VCaP cells.
The whole-cell extracts were prepared in lysis buffer with a protease inhibitor cocktail (Bimake), while the xenograft tissue extracts were prepared in 0.5% Nonidet P 40 Substitute solution (Biosharp) with cocktail protease inhibitor (Bimake). Each sample containing 30 μg of total protein was loaded onto 10% SDS-PAGE and electrotransferred onto polyvinylidene fluoride membranes. The membranes were blocked with 5% skimmed milk in PBST at room temperature for 2 hours and incubated with primary antibodies at 4° C overnight. After the membranes were washed with PBST three times, they were incubated with horseradish peroxidase-conjugated anti-rabbit or anti-mouse secondary antibody at room temperature for 1 hour. Chemiluminescent detection was performed with WesternBright ECL (Advansta). The immunoblots were visualized using the FluorChem FC3 system (ProteinSimple).
For orientation: Immunoblotting shows a protein as a band on a membrane.

On the set-up of data set [3]: method as in PMID 27590197. The note with it: rats; cited from earlier work.
Data set [4] relates to PSA. As to the kind of experiment: PSA mRNA (qRT-PCR) and protein (Western blot) expression in VCaP cells. Format: cell-based. As to conditions: 10 nM DHT, 24 hours. As to the method: as §1, §2, §3

On to `CNC(=O)c1ccc(N2C(=S)N(c3ccc(C#N)c(C(F)(F)F)c3)C(=O)C2(C)C)cc1F` [MDV3100, reference compound], for which the “DHT-induced endogenous mRNA and protein expression of TMPRSS2” value in data set [1] is “significantly suppressed”. For the same compound, the α-tubulin acetylation result in data set [2] is listed as “did not”. Also, in data set [3], the oral bioavailability is recorded as 97% and the plasma half-life is 8.56 h. For the same compound, in data set [4], the “DHT-induced endogenous mRNA and protein expression of PSA” value is “significantly suppressed”.
